Measurements published in US10765114B2, “4-amino-6-(pyridyl and 2-substitutedphenyl)-picolinates and 6-amino-2-(pyridyl and 2-substitutedphenyl)-pyrimidine-4-carboxylates and their use as herbicides” (Dow AgroSciences LLC, priority 2013, dated 2020).
Read-outs that look alike come from different tables or passages of the source.

Assays:
[1] = system: Key Broadleaf Weed and Crop Species; assay: Post-Emergent Test II (Table 5); assay type: in vivo; details: post-emergence, 336 h; for pest or weed control at 70 g/ha: application rate 70 (kg ai/ha; footnote: g ai/ha); for pest or weed control at 140 g/ha: application rate 140 (kg ai/ha; footnote: g ai/ha)
Summary of the method: (§1)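 Post-emergence greenhouse spray, 1st-2nd true leaf stage; track sprayer, 187 L/ha; acetone/DMSO stock diluted in aqueous acetone/IPA/DMSO with Atplus 411F and Triton X-155; rates 1× to 1/16×; subirrigated; visual injury 0 (none) to 100% (complete kill) at 14 days.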

[2] = system: Key Grass and Sedge Weeds as well as Grass Crops; assay: Post-Emergent Test II (Table 6); assay type: in vivo; details: post-emergence, 336 h, 14 days after application; for pest or weed control at 70 g/ha: 70 g ai/ha; for pest or weed control at 140 g/ha: 140 g ai/ha
Summary of the method: as §1

[3] = Abutilon theophrasti, ABUTH: velvetleaf (Abutilon theophrasti), read-out: Visual Growth Reduction (%) 14 Days After Application ABUTH
[4] = Amaranthus retroflexus, AMARE: redroot pigweed (Amaranthus retroflexus), read-out: Visual Growth Reduction (%) 14 Days After Application AMARE
[5] = Brassica napus, BRSSS: oilseed rape, canola (Brassica napus), read-out: Visual Growth Reduction (%) 14 Days After Application BRSSS
[6] = Chenopodium album, CHEAL: lambsquarters (Chenopodium album), read-out: Visual Growth Reduction (%) 14 Days After Application CHEAL
[7] = Euphorbia heterophylla, EPHHL: wild poinsettia (Euphorbia heterophylla), read-out: Visual Growth Reduction (%) 14 Days After Application EPHHL
[8] = Helianthus annuus, HELAN: sunflower (Helianthus annuus), read-out: Visual Growth Reduction (%) 14 Days After Application HELAN
[9] = Viola tricolor, VIOTR: wild pansy (Viola tricolor), read-out: Visual Growth Reduction (%) 14 Days After Application VIOTR
[10] = CYPSS, read-out: Visual Growth Reduction (%) 14 Days After Application CYPSS
[11] = DIGSA: crabgrass (Digitaria sanguinalis), read-out: Visual Growth Reduction (%) 14 Days After Application DIGSA
[12] = ECHSS, read-out: Visual Growth Reduction (%) 14 Days After Application ECHSS
[13] = ORYSS (crop), read-out: Visual Growth Reduction (%) 14 Days After Application ORYSS
[14] = SETFA: giant foxtail (Setaria faberi), read-out: Visual Growth Reduction (%) 14 Days After Application SETFA
[15] = SORVU: grain sorghum (Sorghum vulgare), read-out: Visual Growth Reduction (%) 14 Days After Application SORVU
[16] = TRZSS (crop), read-out: Visual Growth Reduction (%) 14 Days After Application TRZSS
[17] = ZEAMX: maize, corn (Zea mays), read-out: Visual Growth Reduction (%) 14 Days After Application ZEAMX

Structure (SMILES) | pest or weed control at 70 g/ha [1, 3] [%] | pest or weed control at 140 g/ha [1, 3] [%] | pest or weed control at 70 g/ha [1, 4] [%] | pest or weed control at 140 g/ha [1, 4] [%] | pest or weed control at 70 g/ha [1, 5] [%] | pest or weed control at 140 g/ha [1, 5] [%] | pest or weed control at 70 g/ha [1, 6] [%] | pest or weed control at 140 g/ha [1, 6] [%] | pest or weed control at 70 g/ha [1, 7] [%] | pest or weed control at 140 g/ha [1, 7] [%] | pest or weed control at 70 g/ha [1, 8] [%] | pest or weed control at 140 g/ha [1, 8] [%] | pest or weed control at 70 g/ha [1, 9] [%] | pest or weed control at 140 g/ha [1, 9] [%] | pest or weed control at 70 g/ha [2, 10] [%] | pest or weed control at 140 g/ha [2, 10] [%] | pest or weed control at 70 g/ha [2, 11] [%] | pest or weed control at 140 g/ha [2, 11] [%] | pest or weed control at 70 g/ha [2, 12] [%] | pest or weed control at 140 g/ha [2, 12] [%] | other results
Nc1cc(-c2ccc(Cl)nc2Cl)nc(C(=O)O)c1Cl [Compound 1, 4-amino-2′,5,6′-trichloro-[2,3′-bipyridine]-6-carboxylic acid] | 30 to 44 | 75 to 84 | 95 to 100 | 95 to 100 | 85 to 94 | 95 to 100 | 85 to 94 | 95 to 100 | 0 to 29 | 0 to 29 | 75 to 84 | 85 to 94 | 0 to 29 | 30 to 44 | 0 to 29 | 0 to 29 | 0 to 29 | 0 to 29 | 0 to 29 | 0 to 29 | pest or weed control at 70 g/ha [2, 13]: 0 to 29%; pest or weed control at 140 g/ha [2, 13]: 0 to 29%; pest or weed control at 70 g/ha [2, 14]: 0 to 29%; pest or weed control at 140 g/ha [2, 14]: 0 to 29%; pest or weed control at 70 g/ha [2, 15]: 0 to 29%; pest or weed control at 140 g/ha [2, 15]: 0 to 29%; pest or weed control at 70 g/ha [2, 16]: 0 to 29%; pest or weed control at 140 g/ha [2, 16]: 0 to 29%; pest or weed control at 70 g/ha [2, 17]: 0 to 29%; pest or weed control at 140 g/ha [2, 17]: 0 to 29%; melting point: 184 °C (dec.)
COc1nc(C(F)(F)F)ccc1-c1nc(C(=O)O)c(Cl)c(N)c1F [Compound 2, 4-amino-5-chloro-3-fluoro-2′-methoxy-6′-(trifluoromethyl)-[2,3′-bipyridine]-6-carboxylic acid] | 0 to 29 | 0 to 29 | 0 to 29 | 0 to 29 | 30 to 44 | 45 to 59 | 0 to 29 | 0 to 29 | 0 to 29 | 0 to 29 | 60 to 74 | 60 to 74 | 0 to 29 | 0 to 29 | 0 to 29 | 0 to 29 | 0 to 29 | 0 to 29 | 0 to 29 | 0 to 29 | pest or weed control at 70 g/ha [2, 13]: 0 to 29%; pest or weed control at 140 g/ha [2, 13]: 0 to 29%; pest or weed control at 70 g/ha [2, 14]: 0 to 29%; pest or weed control at 140 g/ha [2, 14]: 0 to 29%; pest or weed control at 70 g/ha [2, 15]: 0 to 29%; pest or weed control at 140 g/ha [2, 15]: 0 to 29%; pest or weed control at 70 g/ha [2, 16]: 0 to 29%; pest or weed control at 140 g/ha [2, 16]: 0 to 29%; pest or weed control at 70 g/ha [2, 17]: 0 to 29%; pest or weed control at 140 g/ha [2, 17]: 0 to 29%; melting point: 133 to 134 °C
COC(=O)c1nc(-c2ccc(Cl)c(F)c2C(=O)O)cc(N)c1Cl [Compound 91, 6-(4-amino-5-chloro-6-(methoxycarbonyl)pyridin-2-yl)-3-chloro-2-fluorobenzoic acid] | 0 to 29 | 0 to 29 | 0 to 29 | 0 to 29 | 0 to 29 | 0 to 29 | 0 to 29 | 0 to 29 | 0 to 29 | 0 to 29 | 0 to 29 | 0 to 29 | 0 to 29 | 0 to 29 | 0 to 29 | 0 to 29 | 0 to 29 | 0 to 29 | 0 to 29 | 0 to 29 | pest or weed control at 70 g/ha [2, 13]: 0 to 29%; pest or weed control at 140 g/ha [2, 13]: 0 to 29%; pest or weed control at 70 g/ha [2, 14]: 0 to 29%; pest or weed control at 140 g/ha [2, 14]: 0 to 29%; pest or weed control at 70 g/ha [2, 15]: 0 to 29%; pest or weed control at 140 g/ha [2, 15]: 0 to 29%; pest or weed control at 70 g/ha [2, 16]: 0 to 29%; pest or weed control at 140 g/ha [2, 16]: 0 to 29%; pest or weed control at 70 g/ha [2, 17]: 0 to 29%; pest or weed control at 140 g/ha [2, 17]: 0 to 29%
Nc1cc(-c2ccc(Cl)c(Cl)c2Cl)nc(C(=O)O)c1Cl [Compound 93] | 85 to 94 | 85 to 94 | 95 to 100 | 95 to 100 | 95 to 100 | 95 to 100 | 85 to 94 | 95 to 100 | 95 to 100 | 95 to 100 | 60 to 74 | 75 to 84 | 60 to 74 | 0 to 29 | 0 to 29 | 0 to 29 | 60 to 74 | 60 to 74 | 30 to 44 | 30 to 44 | pest or weed control at 70 g/ha [2, 13]: 0 to 29%; pest or weed control at 140 g/ha [2, 13]: 0 to 29%; pest or weed control at 70 g/ha [2, 14]: 0 to 29%; pest or weed control at 140 g/ha [2, 14]: 0 to 29%; pest or weed control at 70 g/ha [2, 15]: 0 to 29%; pest or weed control at 140 g/ha [2, 15]: 0 to 29%; pest or weed control at 70 g/ha [2, 16]: 45 to 59%; pest or weed control at 140 g/ha [2, 16]: 60 to 74%; pest or weed control at 70 g/ha [2, 17]: 30 to 44%; pest or weed control at 140 g/ha [2, 17]: 30 to 44%
